Calls of active or inactive are those of the source. The calls are words filed in the database; no cut-off is given here.
Columns and labels:
[1] = Growth inhibition of mouse B16F10 cells by MTT assay; format: functional, cell-based; details: B16-F10
SK-MEL-28 = experiment: Growth inhibition of human SK-MEL-28 cells by MTT assay; format: functional, cell-based
[2] = Growth inhibition of human U373 cells by MTT assay; format: functional, cell-based, U-373MG ATCC; details: U373 MG
MCF7 = experiment: Growth inhibition of human MCF7 cells by MTT assay; format: functional, cell-based
[3] = Chemical stability of the compound in MEM and RPMI assessed as compound recovery after 72 hrs in presence of foetal calf serum; format: physicochemical; details: cattle, MEM and RPMI cell culture media with foetal calf serum; read-out: Drug recovery
[4] = Growth inhibition of human Hs683 cells by MTT assay; format: functional, cell-based; details: Hs 683
A549 = experiment: Growth inhibition of human A549 cells by MTT assay; format: functional, cell-based
U-373MG ATCC [5] = experiment: Cytotoxicity against human U373 cells at 5 uM after 72 hrs by video microscopic analysis; format: functional, cell-based
U-373MG ATCC [6] = experiment: Cytotoxicity against human U373 cells at 17 uM after 72 hrs by video microscopic analysis; format: functional, cell-based
U-373MG ATCC [7] = experiment: Cytotoxicity against human U373 cells at 8 uM after 72 hrs by video microscopic analysis; format: functional, cell-based

Structure (SMILES)	IC50 [1]	IC50 (SK-MEL-28)	IC50 [2]	IC50 (MCF7)	remaining at 72 h [3]	IC50 [4]	IC50 (A549)	Activity (U-373MG ATCC [5])	Activity (U-373MG ATCC [6])	Activity (U-373MG ATCC [7])
CCCCCCCC/C=C\CCCCCCCC(=O)Oc1cccc2c1C(=O)C=C(C)C2=O	22 µM	31 µM	62 µM	57 µM	> 95%	35 µM	36 µM			
CCCCCCCCCCCCCCCCCC(=O)Oc1cccc2c1C(=O)C=C(C)C2=O	46 µM	91 µM	> 100 µM	> 100 µM	> 95%	> 100 µM	> 100 µM			
CCOc1cccc2c1C(=O)C=C(C)C2=O	3 µM	3 µM	24 µM	6 µM		2 µM	3 µM			
CC(C)=CCC/C(C)=C/COc1cccc2c1C(=O)C=CC2=O	> 100 µM	> 100 µM	> 100 µM	> 100 µM		67 µM	67 µM			
CCCCCCCC/C=C\CCCCCCCC(=O)Oc1cccc2c1C(=O)C=CC2=O	61 µM	67 µM	91 µM	61 µM	> 95%	77 µM	77 µM			
CC1=CC(=O)c2c(O)cccc2C1=O [PLUMBAGIN]	1 µM	5 µM	5 µM	3 µM		4 µM	3 µM	Active		
C=CCOc1cccc2c1C(=O)C=C(C)C2=O	1 µM	3 µM	3 µM	3 µM		3 µM	3 µM			
COc1cccc2c1C(=O)C=C(C)C2=O	2 µM	5 µM	5 µM	5 µM		3 µM	4 µM	Active		
C=CCOc1cccc2c1C(=O)C=CC2=O	4 µM	24 µM	32 µM	21 µM		19 µM	26 µM			
CCCCCCCCCCCC(=O)Oc1cccc2c1C(=O)C=CC2=O	8 µM	15 µM	18 µM	24 µM	> 95%	29 µM	29 µM			
CCCCCCCCCCCCCCCCCC(=O)Oc1cccc2c1C(=O)C=CC2=O	19 µM	18 µM	65 µM	30 µM	> 95%	67 µM	67 µM			
CC(C)=CCC/C(C)=C/COc1cccc2c1C(=O)C=C(C)C2=O	30 µM	31 µM	59 µM	40 µM		22 µM	23 µM			
O=C1C=CC(=O)c2c(O)cccc21 [JUGLONE]	6 µM	7 µM	17 µM	13 µM		7 µM	7 µM		Active	
CCCCCCCCCCCC(=O)Oc1cccc2c1C(=O)C=C(C)C2=O	3 µM	77 µM	16 µM	29 µM	> 95%	17 µM	22 µM			
CCCCCCCCCCCCCCCC(=O)Oc1cccc2c1C(=O)C=CC2=O	53 µM	> 100 µM	> 100 µM	86 µM	> 95%	> 100 µM	> 100 µM			
CCCCCCCCCCCCCCCC(=O)Oc1cccc2c1C(=O)C=C(C)C2=O	22 µM	73 µM	48 µM	57 µM	> 95%	33 µM	30 µM			
CCCCCCCCCCCCCC(=O)Oc1cccc2c1C(=O)C=CC2=O	27 µM	33 µM	30 µM	30 µM	> 95%	36 µM	36 µM			
CC(=O)Oc1cccc2c1C(=O)C=C(C)C2=O	0.4 µM	3 µM	5 µM	4 µM	> 95%	5 µM	5 µM			
CCCCCCCCCCCCCC(=O)Oc1cccc2c1C(=O)C=C(C)C2=O	3 µM	18 µM	16 µM	22 µM	> 95%	9 µM	12 µM			
CCOc1cccc2c1C(=O)C=CC2=O	5 µM	9 µM	29 µM	24 µM		23 µM	19 µM			
CC(C)=CCOc1cccc2c1C(=O)C=C(C)C2=O	1 µM	7 µM	7 µM	3 µM		3 µM	4 µM			
CC(=O)Oc1cccc2c1C(=O)C=CC2=O	7 µM	23 µM	8 µM	8 µM	> 95%	23 µM	23 µM			Active
CC(C)=CCOc1cccc2c1C(=O)C=CC2=O	7 µM	5 µM	15 µM	16 µM		7 µM	6 µM			
COc1cccc2c1C(=O)C=CC2=O	10 µM	30 µM	9 µM	39 µM		6 µM	9 µM			

— ChEMBL document CHEMBL3751844, “Novel juglone and plumbagin 5-O derivatives and their in vitro growth inhibitory activity against apoptosis-resistant cancer cells” (Bioorg Med Chem Lett, 2016)
